Test results published in the NIST ThermoML archive (doi:10.1016/j.jct.2006.08.009).

Assay: mn = molality of the nth substance listed, in mol/kg
Details: 350 kPa, Liquid; for apparent molar heat capacity: Extra sensitive DSC

OC[C@@H](O)[C@H](O)[C@H](O)[C@@H](O)CO [dulcitol] + O
Details | apparent molar heat capacity [J/K/mol] | mass density [kg/m3]
278.15 K, m1 = 0.0188 | 374 | 1001.19
278.15 K, m1 = 0.0418 | 369 | 1002.77
278.15 K, m1 = 0.0698 | 379.2 | 1004.44
278.15 K, m1 = 0.0986 | 380.1 | 1006.47
278.15 K, m1 = 0.119 | 370.3 | 1007.99
278.15 K, m1 = 0.1492 | 379.2 | 1009.86
283.15 K, m1 = 0.0188 | 394 | 1000.99
283.15 K, m1 = 0.0418 | 389 | 1002.48
283.15 K, m1 = 0.0698 | 397.8 | 1004.2
283.15 K, m1 = 0.0986 | 398.6 | 1006.13
283.15 K, m1 = 0.119 | 388.5 | 1007.58
283.15 K, m1 = 0.1492 | 397.5 | 1009.47
288.15 K, m1 = 0.0188 | 409 | 1000.42
288.15 K, m1 = 0.0418 | 405 | 1001.85
288.15 K, m1 = 0.0698 | 412.3 | 1003.61
288.15 K, m1 = 0.0986 | 413.3 | 1005.5
288.15 K, m1 = 0.119 | 402.7 | 1006.94
288.15 K, m1 = 0.1492 | 412 | 1008.75
293.15 K, m1 = 0.0188 | 423 | –
293.15 K, m1 = 0.0418 | 418 | –
293.15 K, m1 = 0.0698 | 425.3 | –
293.15 K, m1 = 0.0986 | 426.5 | –
293.15 K, m1 = 0.119 | 416.6 | –
293.15 K, m1 = 0.1492 | 425 | –
298.15 K, m1 = 0.0188 | 434 | 998.35
298.15 K, m1 = 0.0418 | 430 | 999.74
298.15 K, m1 = 0.0698 | 436.4 | 1001.5
298.15 K, m1 = 0.0986 | 437.6 | 1003.47
298.15 K, m1 = 0.119 | 428.5 | 1004.74
298.15 K, m1 = 0.1492 | 436.1 | 1006.52
303.15 K, m1 = 0.0188 | 444 | –
303.15 K, m1 = 0.0418 | 439 | –
303.15 K, m1 = 0.0698 | 446 | –
303.15 K, m1 = 0.0986 | 447.4 | –
303.15 K, m1 = 0.119 | 438.9 | –
303.15 K, m1 = 0.1492 | 445.8 | –
308.15 K, m1 = 0.0188 | 453 | 995.36
308.15 K, m1 = 0.0418 | 448 | 996.65
308.15 K, m1 = 0.0698 | 454.4 | 998.44
308.15 K, m1 = 0.0986 | 456 | 1000.21
308.15 K, m1 = 0.119 | 447.9 | 1001.54
308.15 K, m1 = 0.1492 | 454.3 | 1003.38
313.15 K, m1 = 0.0188 | 461 | –
313.15 K, m1 = 0.0418 | 455.7 | –
313.15 K, m1 = 0.0698 | 462.1 | –
313.15 K, m1 = 0.0986 | 463.5 | –
313.15 K, m1 = 0.119 | 456 | –
313.15 K, m1 = 0.1492 | 461.9 | –
318.15 K, m1 = 0.0188 | 468 | 991.52
318.15 K, m1 = 0.0418 | 462.7 | 992.87
318.15 K, m1 = 0.0698 | 468.8 | 994.59
318.15 K, m1 = 0.0986 | 470.3 | 996.35
318.15 K, m1 = 0.119 | 463.3 | 997.6
318.15 K, m1 = 0.1492 | 468.7 | 999.44
323.15 K, m1 = 0.0188 | 475 | –
323.15 K, m1 = 0.0418 | 469 | –
323.15 K, m1 = 0.0698 | 474.9 | –
323.15 K, m1 = 0.0986 | 476.5 | –
323.15 K, m1 = 0.119 | 469.8 | –
323.15 K, m1 = 0.1492 | 474.8 | –
328.15 K, m1 = 0.0188 | 481 | 986.98
328.15 K, m1 = 0.0418 | 474.7 | 988.34
328.15 K, m1 = 0.0698 | 480.5 | 990.01
328.15 K, m1 = 0.0986 | 482.1 | 991.76
328.15 K, m1 = 0.119 | 475.7 | 993.01
328.15 K, m1 = 0.1492 | 480.4 | 994.81
333.15 K, m1 = 0.0188 | 486 | –
333.15 K, m1 = 0.0418 | 479.8 | –
333.15 K, m1 = 0.0698 | 485.6 | –
333.15 K, m1 = 0.0986 | 487.2 | –
333.15 K, m1 = 0.119 | 481 | –
333.15 K, m1 = 0.1492 | 485.5 | –
338.15 K, m1 = 0.0188 | 491 | 981.81
338.15 K, m1 = 0.0418 | 484.5 | 983.19
338.15 K, m1 = 0.0698 | 490.1 | 984.85
338.15 K, m1 = 0.0986 | 491.8 | 986.55
338.15 K, m1 = 0.119 | 486 | 987.85
338.15 K, m1 = 0.1492 | 490.1 | 989.64
343.15 K, m1 = 0.0188 | 495 | –
343.15 K, m1 = 0.0418 | 488.6 | –
343.15 K, m1 = 0.0698 | 494.2 | –
343.15 K, m1 = 0.0986 | 495.9 | –
343.15 K, m1 = 0.119 | 490.4 | –
343.15 K, m1 = 0.1492 | 494.3 | –
348.15 K, m1 = 0.0188 | 499 | 976.1
348.15 K, m1 = 0.0418 | 492.2 | 977.46
348.15 K, m1 = 0.0698 | 497.9 | 979.12
348.15 K, m1 = 0.0986 | 499.6 | 980.85
348.15 K, m1 = 0.119 | 494.4 | 982.09
348.15 K, m1 = 0.1492 | 497.9 | 983.86
353.15 K, m1 = 0.0188 | 502 | –
353.15 K, m1 = 0.0418 | 495.4 | –
353.15 K, m1 = 0.0698 | 501.2 | –
353.15 K, m1 = 0.0986 | 502.9 | –
353.15 K, m1 = 0.119 | 498.1 | –
353.15 K, m1 = 0.1492 | 501.2 | –
358.15 K, m1 = 0.0188 | 504 | 969.86
358.15 K, m1 = 0.0418 | 498.1 | 971.46
358.15 K, m1 = 0.0698 | 503.5 | 972.88
358.15 K, m1 = 0.0986 | 505.2 | 974.54
358.15 K, m1 = 0.119 | 501.3 | 975.86
358.15 K, m1 = 0.1492 | 503.6 | 977.9
363.15 K, m1 = 0.0188 | 506 | –
363.15 K, m1 = 0.0418 | 499.6 | –
363.15 K, m1 = 0.0698 | 504.4 | –
363.15 K, m1 = 0.0986 | 505.7 | –
363.15 K, m1 = 0.119 | 504.1 | –
363.15 K, m1 = 0.1492 | 504.3 | –
368.15 K, m1 = 0.0188 | – | 963.12
368.15 K, m1 = 0.0418 | – | 964.48
368.15 K, m1 = 0.0698 | – | 966.14
368.15 K, m1 = 0.0986 | – | 967.86
368.15 K, m1 = 0.119 | – | 969.19
368.15 K, m1 = 0.1492 | – | 970.84
